Results taken from patent publication US20240140991A1, “ANTIBIOTIC NATURAL PRODUCT ANALOGUES” (THE QUEEN'S UNIVERSITY OF BELFAST, priority 2021, published 2024).
Values after ≈ are worked out from the molar mass of the structure shown. Positions of bridges follow the written chain, without caps; N, C: chain ends. Non-standard residues stand in square brackets, D forms with d. Residues, ends and D or L forms follow the SMILES beside them. ξ: configuration not given here. *: point of attachment. Octanoyl(7-Me) = CC(C)CCCCCC(=O)*; Palmitoyl = CCCCCCCCCCCCCCCC(=O)*; Hexanoyl(4ξ-Me) = CCC(C)CCC(=O)*; dOrn = NCCC[C@@H](N)C(=O)O; Octanoyl = CCCCCCCC(=O)*; Orn = NCCC[C@H](N)C(=O)O; Dap = NC[C@H](N)C(=O)O; Alloc = C=CCOC(=O)*

How the values were obtained:
[1] = test system: E. Coli NCTC 12241; format: cell-based
Protocol: (§1) Minimum inhibitory concentration (MIC) was determined by broth microdilution according to CLSI guidelines. Blood agar plates were inoculated with glycerol stocks of Escherichia coli ATCC 25922, E. coli ATCC 25922 MCR-1, E. coli MCR-1 (clinical isolate from Utrecht Medical Center, NL), E. coli EQAS MCR-2 (clinical isolate from Wageningen University and Research, NL), Kiebsielia pneumoniae ATCC 11228, K. pneumoniae ATCC 13883, K. pneumonia 2048 (clinical isolate from Vrije Universiteit Amsterdam Medical Center, NL), K. pneumonia JS-123 (clinical isolate from Utrecht Medical Center, NL), Acinetobacter baumannii ATCC 17961, A. baumannil ATCC 17978, A. baumannii 2018-006 (clinical isolate from Rijksinstituut voor Volksgezondheid en Milieu, NL), A. baumannii MDR (clinical isolate from Vrije Universiteit Amsterdam Medical Center, NL), Pseudomonas aeruginosa ATCC 27853, P. aeruginosa PAO1, P. aeruginosa NRZ-03961 (Reference strain from Das Nationale Referenzzentrum für gramnegative Krankenhauserreger, DE), P. aeruginosa M-120 (clinical isolate from Leiden University Medical Center, NL) and Staphylococcus aureus USA300 (clinical isolate from Texas Children's Hospitalm, USA). E. coli 25922 MCR1 was grown on LB agar supplemented with kanamycin. The inoculated agar plates were then incubated for 16 hours at 37° C. Individually grown colonies were subsequently used to inoculate 3 mL aliquots of TSB that were then incubated at 37° C. with shaking at 220 rpm. In parallel, the compounds to be assessed were serially diluted with Mueller-Hinton broth (MHB) in polypropylene 96-well plates (50 μL in each well). Once the OD600 of the bacterial suspensions reached 0.5, the bacteria were diluted with MHB (final concentration 2×10^5 CFU mL^−1) and added to the microplates containing the test compounds (50 μL to each well, final volume: 100 μL). The well-plates were sealed with an adhesive membrane and after 16 hours of incubation at 37° C. with shaking at 220 rpm the wells were visually inspected for bacterial growth. MIC values were defined as the lowest concentration of the compound that prevented visible growth of bacteria.
were tested for inhibition of E. Coli NCTC 12241.

[2] = test system: E. coli ATCC 25922 MCR-1; format: cell-based, Escherichia coli; conditions: E. coli ATCC 25922 MCR-1 (colistin resistant)
Protocol: as §1
(§2) In the table above, “MCR” denotes that one of the MCR family of genes, which confers colistin resistance, is present in the bacterial strain. Thus, E. coli ATCC 25922 MCR-1, E. coli MCR-1 and E. coli EQAS MCR-2 are each colistin resistant. […] Therefore, laterocidamide may overcome some of the challenges faced due to antibiotic resistance.

[3] = test system: E. coli MCR-1; format: cell-based, Escherichia coli; conditions: E. coli MCR-1 clinical isolate (colistin resistant)
Protocol: as §1, §2

[4] = test system: A. baumannii MDR; format: cell-based, Acinetobacter baumannii; conditions: A. baumannii MDR clinical isolate
Protocol: as §1

[5] = test system: E. coli; format: cell-based
Protocol: as §1
MIC values were determined for the lipid analogues of brevicidine.
MIC values were determined for the position 9 analogues of linear brevicidine.

[6] = test system: Escherichia coli ATCC 25922; format: cell-based; conditions: ATCC 25922
Procedure, shortened: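 Broth microdilution in MHB per CLSI; inoculum 2×10^5 CFU mL^−1 from log-phase TSB cultures at OD600 0.5. Plates incubated 16 hours at 37° C with shaking at 220 rpm. MIC is the lowest concentration preventing visible growth.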

[7] = test system: K. pneumoniae ATCC 11228; format: cell-based, Klebsiella pneumoniae; conditions: ATCC 11228
Protocol: as §1

[8] = test system: A. baumannii ATCC 17978; format: cell-based, Acinetobacter baumannii; conditions: ATCC 17978
Protocol: as §1

[9] = test system: P. aeruginosa PAO1; format: cell-based, Pseudomonas aeruginosa; conditions: PAO1
Protocol: as §1

`CCC(C)CCC(=O)N[C@H](CC(N)=O)C(=O)N[C@H](Cc1ccc(O)cc1)C(=O)N[C@H](Cc1c[nH]c2ccccc12)C(=O)N[C@H](CCCN)C(=O)N[C@@H](CCCN)C(=O)NCC(=O)N[C@H](CCCN)C(=O)N[C@@H](Cc1c[nH]c2ccccc12)C(=O)N[C@@H](C)C(=O)N[C@H](C(=O)NCC(=O)O)[C@@H](C)CC` (some centres unmarked) [MeHex- Ala OH] ({Hexanoyl(4ξ-Me)}-[dN][dY][dW][dOrn][Orn]G[dOrn]WAIG-OH) was tested, and the “E. coli MIC” value [1] was 50 µg/mL.

With `C=CCOC(=O)NC[C@H](NC(=O)[C@H](Cc1c[nH]c2ccccc12)NC(=O)[C@@H](CCCN)NC(=O)CNC(=O)[C@H](CCCN)NC(=O)[C@@H](CCCN)NC(=O)[C@@H](Cc1c[nH]c2ccccc12)NC(=O)[C@@H](Cc1ccc(O)cc1)NC(=O)[C@@H](CC(N)=O)NC(=O)CCCCCCC)C(=O)N[C@H](C(=O)NCC(=O)O)[C@@H](C)CC` [Oct- Dap(Alloc) OH] (Octanoyl-[dN][dY][dW][dOrn][Orn]G[dOrn]W[Dap](Alloc)IG-OH) the “E. coli MIC” value [1] was 12.5 µg/mL.

`CC[C@H](C)[C@@H]1NC(=O)[C@@H](NC(=O)[C@H](Cc2c[nH]c3ccccc23)NC(=O)[C@@H](CCCN)NC(=O)CNC(=O)[C@H](CCCN)NC(=O)[C@@H](CCCN)NC(=O)[C@@H](Cc2c[nH]c3ccccc23)NC(=O)[C@@H](Cc2ccc(O)cc2)NC(=O)[C@@H](CO)NC(=O)CCCCCC(C)C)COC(=O)CNC(=O)CNC(=O)[C@H](CC(N)=O)NC1=O` [Ser9-Laterocidine] ({Octanoyl(7-Me)}-[dS][dY][dW][dOrn][Orn]G[dOrn]WSINGG; ester 9-C) was tested, and the “Minimum inhibitory concentration (MIC)” value [2] was 0.5 µg/mL (≈ 0.314 µM), the “Minimum inhibitory concentration (MIC)” value [3] was 0.5 µg/mL (≈ 0.314 µM) and the “Minimum inhibitory concentration (MIC)” value [4] was 2 µg/mL (≈ 1.26 µM).

For `CCCCCCCC(=O)N[C@H](CC(N)=O)C(=O)N[C@H](Cc1ccc(O)cc1)C(=O)N[C@H](Cc1c[nH]c2ccccc12)C(=O)N[C@H](CCCN)C(=O)N[C@@H](CCCN)C(=O)NCC(=O)N[C@H](CCCN)C(=O)N[C@@H](Cc1c[nH]c2ccccc12)C(=O)N[C@@H](C)C(=O)N[C@H](C(=O)NCC(=O)O)[C@@H](C)CC` [Oct- Ala OH] (Octanoyl-[dN][dY][dW][dOrn][Orn]G[dOrn]WAIG-OH), the “E. coli MIC” value [1] was 25 µg/mL.

`C=CCOC(=O)NC[C@H](NC(=O)[C@H](Cc1c[nH]c2ccccc12)NC(=O)[C@@H](CCCN)NC(=O)CNC(=O)[C@H](CCCN)NC(=O)[C@@H](CCCN)NC(=O)[C@@H](Cc1c[nH]c2ccccc12)NC(=O)[C@@H](Cc1ccc(O)cc1)NC(=O)[C@@H](CC(N)=O)NC(=O)CCCCCCC)C(=O)N[C@H](C(=O)NCC(N)=O)[C@@H](C)CC` [Oct Dap(Alloc) NH2] (Octanoyl-[dN][dY][dW][dOrn][Orn]G[dOrn]W[Dap](Alloc)IG-NH2) was tested, and the “E. coli MIC” value [1] was 0.4 µg/mL.

In the case of `CCC(C)CCC(=O)N[C@H](CC(N)=O)C(=O)N[C@H](Cc1ccc(O)cc1)C(=O)N[C@H](Cc1c[nH]c2ccccc12)C(=O)N[C@H](CCCN)C(=O)N[C@@H](CCCN)C(=O)NCC(=O)N[C@H](CCCN)C(=O)N[C@@H](Cc1c[nH]c2ccccc12)C(=O)N[C@@H](CO)C(=O)N[C@H](C(=O)NCC(N)=O)[C@@H](C)CC` (some centres unmarked) [Und(9-Ser)-NH2] ({Hexanoyl(4ξ-Me)}-[dN][dY][dW][dOrn][Orn]G[dOrn]WSIG-NH2), the “E. coli MIC” value [5] was 0.78 µg/mL and the “E. coli MIC” value [1] was 0.78 µg/mL.

In the case of `C=CCOC(=O)NC[C@H](NC(=O)[C@H](Cc1c[nH]c2ccccc12)NC(=O)[C@@H](CCCN)NC(=O)CNC(=O)[C@H](CCCN)NC(=O)[C@@H](CCCN)NC(=O)[C@@H](Cc1c[nH]c2ccccc12)NC(=O)[C@@H](Cc1ccc(O)cc1)NC(=O)[C@@H](CC(N)=O)NC(=O)CCC(C)CC)C(=O)N[C@H](C(=O)NCC(=O)O)[C@@H](C)CC` (some centres unmarked) [MeHex- Dap(Alloc) OH] ({Hexanoyl(4ξ-Me)}-[dN][dY][dW][dOrn][Orn]G[dOrn]W[Dap](Alloc)IG-OH), the “E. coli MIC” value [1] was 1.6 µg/mL.

In the case of `CCC(C)CCC(=O)N[C@H](CC(N)=O)C(=O)N[C@H](Cc1ccc(O)cc1)C(=O)N[C@H](Cc1c[nH]c2ccccc12)C(=O)N[C@H](CCCN)C(=O)N[C@@H](CCCN)C(=O)NCC(=O)N[C@H](CCCN)C(=O)N[C@@H](Cc1c[nH]c2ccccc12)C(=O)N[C@H](C(=O)N[C@H](C(=O)NCC(N)=O)[C@@H](C)CC)[C@@H](C)O` (some centres unmarked) [Und(9-Thr)-NH2] ({Hexanoyl(4ξ-Me)}-[dN][dY][dW][dOrn][Orn]G[dOrn]WTIG-NH2), the “E. coli MIC” value [5] was 1.56 µg/mL and the “E. coli MIC” value [1] was 1.56 µg/mL.

In the case of `CCC(C)CCC(=O)N[C@H](CC(N)=O)C(=O)N[C@H](Cc1ccc(O)cc1)C(=O)N[C@H](Cc1c[nH]c2ccccc12)C(=O)N[C@H](CCCN)C(=O)N[C@@H](CCCN)C(=O)NCC(=O)N[C@H](CCCN)C(=O)N[C@@H](Cc1c[nH]c2ccccc12)C(=O)N[C@@H](CN)C(=O)N[C@H](C(=O)NCC(N)=O)[C@@H](C)CC` (some centres unmarked) [Und(9-Dap)-NH2] ({Hexanoyl(4ξ-Me)}-[dN][dY][dW][dOrn][Orn]G[dOrn]W[Dap]IG-NH2), the “E. coli MIC” value [5] was 3.1 µg/mL and the “E. coli MIC” value [1] was 3.1 µg/mL.

For `CCCCCCCC(=O)N[C@H](CO)C(=O)N[C@H](Cc1ccc(O)cc1)C(=O)N[C@H](Cc1c[nH]c2ccccc12)C(=O)N[C@H](CCCN)C(=O)N[C@@H](CCCN)C(=O)NCC(=O)N[C@H](CCCN)C(=O)N[C@@H](Cc1c[nH]c2ccccc12)C(=O)N[C@@H]1C(=O)N[C@@H]([C@@H](C)CC)C(=O)N[C@@H](CC(N)=O)C(=O)NCC(=O)NCC(=O)O[C@@H]1C` [Compound C8] (Octanoyl-[dS][dY][dW][dOrn][Orn]G[dOrn]WTINGG; ester 9-C), the “Minimum inhibitory concentration (MIC)” value [6] was 0.5 to 1 µg/mL, the “Minimum inhibitory concentration (MIC)” value [7] was 0.5 to 1 µg/mL and the “Minimum inhibitory concentration (MIC)” value [8] was 0.5 to 1 µg/mL. The “Minimum inhibitory concentration (MIC)” value [9] was 1 µg/mL (≈ 0.629 µM).

In the case of `CCCCCCCCCCCCCCCC(=O)N[C@H](CO)C(=O)N[C@H](Cc1ccc(O)cc1)C(=O)N[C@H](Cc1c[nH]c2ccccc12)C(=O)N[C@H](CCCN)C(=O)N[C@@H](CCCN)C(=O)NCC(=O)N[C@H](CCCN)C(=O)N[C@@H](Cc1c[nH]c2ccccc12)C(=O)N[C@@H]1C(=O)N[C@@H]([C@@H](C)CC)C(=O)N[C@@H](CC(N)=O)C(=O)NCC(=O)NCC(=O)O[C@@H]1C` [Compound C16] (Palmitoyl-[dS][dY][dW][dOrn][Orn]G[dOrn]WTINGG; ester 9-C), the “Minimum inhibitory concentration (MIC)” value [6] was 64 µg/mL (≈ 37.6 µM), the “Minimum inhibitory concentration (MIC)” value [7] was 32 µg/mL (≈ 18.8 µM) and the “Minimum inhibitory concentration (MIC)” value [8] was 4 to 8 µg/mL. The “Minimum inhibitory concentration (MIC)” value [9] was 64 µg/mL (≈ 37.6 µM).

`C=CCOC(=O)NC[C@H](NC(=O)[C@H](Cc1c[nH]c2ccccc12)NC(=O)[C@@H](CCCN)NC(=O)CNC(=O)[C@H](CCCN)NC(=O)[C@@H](CCCN)NC(=O)[C@@H](Cc1c[nH]c2ccccc12)NC(=O)[C@@H](Cc1ccc(O)cc1)NC(=O)[C@@H](CC(N)=O)NC(=O)CCC(C)CC)C(=O)N[C@H](C(=O)NCC(N)=O)[C@@H](C)CC` (some centres unmarked) [MeHex- Dap(Alloc) NH2] ({Hexanoyl(4ξ-Me)}-[dN][dY][dW][dOrn][Orn]G[dOrn]W[Dap](Alloc)IG-NH2) was tested, and the “E. coli MIC” value [1] was 0.19 µg/mL.
